Tests used:
[1] = test system: ZSF1-Lean and Obese rats; assay: Myocardial tubulin detyrosination after IV injection in ZSF1 rats (western blot, immunofluorescence); format: in vivo, rat; conditions: for detyrosinated tubulin in myocardial tissue (words): IV injections, 30 weeks old ZSF1 rats, western blot
Protocol: FIG. 23: immunofluorescence imaging to detect tubulin detyrosination on LV tissue and evaluate changes in the abundance of detyrosinated tubulin following SVC-02 treatment.
FIG. 24: Quantification of immunofluorescence imaging analysis performed on LV tissue to evaluate changes in microtubule density (SVC-02 as VASHi).
Formalin fixed paraffin embedded (FFPE) sections on glass slides were deparaffinized by sequential washes in xylenes, and decreasing concentrations of ethanol (100%, 95%, 75%, and 50%) followed by ddH2O. Slides were placed in 1× Reveal decloaking solution (Biocare Medical, Catalog #RV1000M) for antigen retrieval. Antigen retrieval was performed using a pressure cooker (Instant Pot Pro 10-in-1 pressure cooker, 8 Quart, Amazon.com) for 15 minutes at high pressure. After cooling, slides underwent a second round of antigen retrieval in 1× Antigen Unmasking Solution, Citric Acid Based (Vector Laboratories, Catalog #H-3300-250) in a pressure cooker for 15 minutes at high pressure. Next, the slides were washed in ddH2O, followed by PBS. The slides were permeabilized with PBS+0.25% Triton X-100, followed by incubation in fish serum blocking buffer (Thermo Scientific, Catalog #37527) containing 0.1% Tween 20 for 1 hour at RT.
Sections were co-stained with Mouse monoclonal (B-5-1-2) antibody to α-tubulin (Sigma-Aldrich, Catalog #T5168; 1:50) and Rabbit polyclonal detyrosinated α-tubulin antibody (ab48389 Lot #GR3425171; 1:50) in blocking buffer for 2 days at RT. Sections were washed in PBS containing 0.1% Tween 20 (PBST) and then incubated in goat anti-rabbit conjugated to Alexa Fluor 647 and goat anti-mouse conjugated to Alexa Fluor 568 secondary antibodies along with Alexa Fluor 488 conjugated WGA (Invitrogen Catalog #W11261; final concentration 25 μg/mL) in PBST for 2 days at RT. The sections were then stained with Hoechst 33342, Trihydrochloride, Trihydrate (Invitrogen Catalog #H3570, final concentration 10 μg/mL in PBS) and mounted in Prolong Diamond Antifade Mountant (Invitrogen Catalog #P36961).
Longitudinally oriented cardiomyocytes within the myocardium were identified. Four channel Z-stacks (4×500 nm slices) of myocardial regions were imaged using a 63× oil immersion objective (1.4 NA) on a Zeiss Airyscan 880 microscope with 18.3 nm×18.3 nm pixel size. The images were background subtracted and maximum intensity projections were generated in FIJI (NIH). Rectangular ROIs were blindly drawn within the cytosolic portion of individual cardiomyocytes, while excluding the nuclei and perinuclear regions, using the WGA and Hoechst channels. The α-tubulin and detyrosinated microtubule images were extracted from the ROIs. […] The microtubule density was calculated as the percent area coverage of the binary maps within each ROI. […]

[2] = target: T1, Carboxypeptidase A (CPA) (Homo sapiens, UniProt P15085); assay: Carboxypeptidase A in vitro assay (western blot); format: biochemical; conditions: selectivity control
T1 sequence (P15085 111-419): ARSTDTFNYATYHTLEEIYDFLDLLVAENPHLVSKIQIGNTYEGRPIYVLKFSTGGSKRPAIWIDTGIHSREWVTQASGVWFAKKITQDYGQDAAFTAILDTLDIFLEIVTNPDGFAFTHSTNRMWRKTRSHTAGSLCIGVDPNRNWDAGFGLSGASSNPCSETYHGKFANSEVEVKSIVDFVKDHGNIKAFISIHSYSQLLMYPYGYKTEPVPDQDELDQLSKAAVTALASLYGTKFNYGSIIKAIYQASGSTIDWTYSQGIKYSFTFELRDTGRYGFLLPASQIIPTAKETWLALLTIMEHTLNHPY
Excerpt: FIG. 6: In vitro detyrosination assays using recombinant human enzymes in absence or presence of SVC_01 or BzISA (specific carboxypeptidase A inhibitor). […] Reactions were stopped using SDS-page laemli buffer and loaded for western blotting using specific antibodies.
Below, the criteria for selection are detailed: • Protease with documented carboxypeptidase activity towards alpha tubulin. Carboxypeptidase A hydrolyzes peptide bonds of C-terminal residues with aromatic or aliphatic side-chains (FIG. 6). • Cysteine protease with preference for non-aromatic residues at P1′. The optimum recognition site for Human rhinovirus (HRV) type 14 3C protease is LEVLFQ/GP, with a glycine at the P1′ position (FIG. 7). • Cysteine protease with preference for aromatic residues at P1′ site. Alike VASH, cathepsin B prefers an aromatic residue at the P1′ position. This is considered to be our best control for specificity (FIG. 8)

[3] = test system: human cells
Excerpt: FIG. 9: Cell viability assay comparing microtubule binding drugs (Parthenolide, Taxol) to SVC_01 exposure on human cells. The MTT assay is used to measure cellular metabolic activity as an indicator of cell viability, proliferation and cytotoxicity. This colorimetric assay is based on the reduction of a yellow tetrazolium salt (3-(4,5-dimethylthiazol-2-yl)-2,5-diphenyltetrazolium bromide or MTT) to purple formazan crystals by metabolically active cells.
Next, we performed safety pharmacology experiments and head-to-head compared the cellular toxicity of SVCs on human cells.

inhibition of Carboxypeptidase A [2]	Compound	detyrosinated tubulin in myocardial tissue (words) [1]	detyrosinated tubulin in myocardial tissue (words) ([1]; listed as SVC-02)	reduction of tubulin detyrosination in heart tissue ([1]; lean and obese animals, 8 hours following intravenous injection)	density of detyrosinated-microtubules in LV tissue ([1]; obese animals, immunofluorescence, vs vehicle)	cell viability / proliferation (MTT) [3]
–	CCOC(=O)[C@H](Cc1ccc(OCC)cc1)NC(=O)[C@H]1O[C@@H]1C(=O)N[C@@H](Cc1ccc(OCC)cc1)C(=O)OCC [SVC_02]	efficient reduction in detyrosinated tubulin	significantly reduced detyrosinated tubulin abundance	about 60%	significant reduction in the density of detyrosinated-microtubules	–
No cross reactions observed	O=C(O)CCC[C@H](NC(=O)[C@H]1O[C@@H]1C(=O)C[C@@H](Cc1ccc(OCc2ccccc2)cc1)C(=O)O)C(=O)NCCc1ccccc1 [SVC_01]	–	–	–	–	does not impact cell proliferation
